Key:
[1] = Enzymatic bioconversion in mouse liver S9 fraction; assay type: in vitro ADME; conditions: for Enzymatic stability, remaining percentage, mouse liver S9: after 5 h incubation, 100 μM prodrug; for Enzymatic stability, remaining percentage, mouse liver S9 / half-life at 100 µM: 37 °C, mean ± SD, n = 3; for Bioconversion rate in mouse liver S9 relative to the corresponding T4 derivative: DIT prodrug faster than T4 prodrug; for half-life at 100 µM: mouse, pH 7.4, liver S9 fraction, read-out: Enzymatic bioconversion half-life t1/2, mouse liver
Procedure: (§1) The rates of bioactivation of the prodrugs 1–8 in mouse and human liver S9 fractions, as well as in mouse primary astrocyte–microglia homogenate, were determined at +37 °C. The incubation mixtures were prepared by mixing liver S9 subcellular fraction or brain cell homogenate (final protein concentration 1.0 mg/mL) with isotonic Tris–HCl buffer (pH 7.4) and 10 mM prodrug stock solution in DMSO (the initial concentration of prodrugs was 100 μM and the DMSO concentration was […]). The mixture was incubated for 5 h, and the samples ([…]) were withdrawn at appropriate intervals. The enzymatic reaction was terminated by the addition of ice-cold acetonitrile ([…]), and the samples were centrifuged for 5 min at 12 000 rpm at room temperature and kept on ice until the supernatants were analyzed by the HPLC method described below. In blank reactions, the S9 fractions were replaced with the same volume of buffer. The pseudo-first-order half-lives (t1/2) for the rates of bioconversion of the prodrugs were calculated from the slope of the linear portion of the plotted logarithm of the remaining prodrug concentration versus time. The rates of bioactivation of prodrugs 1–8 in human plasma and mouse serum were determined at 37 °C as above by adding 10 mM stock solution of the prodrug to plasma/serum in a ratio of 1:10 and analyzed similarly to the samples from S9 fractions.
(§2) The amount of prodrug 1–8 was determined by the HPLC system, which consisted of an Agilent 1100 binary pump (Agilent Technologies Inc., Wilmington, DE), an 1100 micro vacuum degasser, an HP 1050 Autosampler, and an HP 1050 variable wavelength detector, operated at 230–240 nm. The chromatographic separations were achieved on an Agilent Zorbax SB-C18 analytical column (4.4 mm × 150 mm, 5 μm) (Agilent Technologies Inc., Wilmington, DE) by using isocratic elution of water containing 0.1% formic acid (pH ca. 3.0) and acetonitrile containing 0.1% formic acid with ratios of 50:50, 30:70, 40:60, 50:50, 50:50, 40:60, 40:60, and 30:70 (v/v), respectively, for prodrug 1–8. […] The lower limit of quantification for prodrugs 1–8 was 0.20 μM. These HPLC methods were also accurate, precise, and selective over the range of 0.5–20 μM.

[2] = Enzymatic bioconversion in mouse primary astrocyte–microglia homogenate; assay type: in vitro ADME; conditions: after 5 h incubation, 100 μM prodrug, 37 °C, mean ± SD, n = 3
Procedure: as §1, §2

[3] = system: human U-87MG glioma cells; test: Concentration-dependent cellular uptake into human U-87MG glioma cells; assay type: cell-based; conditions: for Km / Vmax, cellular uptake, U-87MG: 5–400 μM, 30 min, 37 °C
Procedure: U-87MG (ATCC, HTB-14, unknown origin) was purchased from Lonza (Basel, Switzerland). The cells were cultured in standard conditions (37 °C, 5% CO2) using Dulbecco’s modified Eagle’s medium (DMEM) supplemented with L-glutamine (2.0 mM), heat-inactivated fetal bovine serum (FBS) (10%), penicillin (50 U/mL), and streptomycin (50 μg/mL). U-87MG cells (passages 8–25) were seeded at a density of 1 × 10^5 cells/well onto 24-well plates and used for the uptake experiments 1 day after seeding. All of the studies were carried out as three biological replicates from the same cell passage.
After removal of the culture medium, U-87MG human glioma cells and mouse primary astrocytes were carefully washed with prewarmed Hank’s balanced salt solution (HBSS) containing 125.0 mM NaCl (or choline chloride in Na^+ free conditions), 4.8 mM KCl, 1.2 mM MgSO4, 1.2 mM KH2PO4, 1.3 mM CaCl2, 5.6 mM glucose, and 25.0 mM 4-(2-hydroxyethyl)piperazine-1-ethanesulfonic acid (HEPES) with the pH adjusted to either 7.4 or pH 8.5 with 1 M NaOH (or KOH in sodium-free conditions). In the experiments at lower pH (4.5–6.5), 25.0 mM HEPES was replaced by 2-(N-morpholino) ethanesulfonic acid (MES), and the pH was adjusted to 4.5, 5.5, and 6.5 by 1.0 M NaOH. Preincubation was done with 500 μL of prewarmed HBSS at 37 °C for 10 min before adding the substrate for the uptake experiments. The functionality of OATP1C1 in human glioma U-87MG cells was studied with a known substrate (L-thyroxine, T4) and of oatp1a4, 1a5, and 1a6 in mouse primary astrocytes with [6,7-^3H(N)]-estrone-3-sulfate (ES) by incubating the uptake solution (250 μL in HBSS) consisting of 5–400 μM of the substrate at 37 °C for 30 min. After incubation, the uptake was stopped by adding 500 μL of ice-cold HBSS, and the cells were washed two times with ice-cold HBSS (2 × 500 μL). The cells were then lysed with 500 μL of 0.1 M NaOH (60 min), the lysate was neutralized, and the protein was precipitated with acidic acetonitrile (ACN with 4.8% formic acid). The supernatants were analyzed by the high-performance liquid chromatography (HPLC) methods described below (T4) or by using a liquid scintillation counter (MicroBeta2 counter, PerkinElmer, Waltham, MA) (ES). The concentrations of T4 and ES were calculated from the spiked standard curve and normalized with the protein concentrations. The protein concentrations on each plate were determined as a mean of three samples by Bio-Rad Protein Assay, based on the Bradford dye-binding method, using bovine serum albumin (BSA) as a standard protein and measuring the absorbance (595 nm) by a multiplate reader (EnVision, PerkinElmer, Inc., Waltham, MA). The OATP-mediated uptake was confirmed by changing the pH of the uptake buffer in the absence of sodium ions, and in the case of OATP1C1 in human U-87MG cells, the uptake of T4 (100 μM) was studied in the presence of competing OATP1C1-ligands, diclofenac and flufenamic acid (100 μM), and in the case of oatp1a4/1a5/1a6 in mouse primary astrocytes, the uptake of ES (100 μM) was studied in the presence of competing OATO1A2-ligand, naringin (100 μM).
Cellular uptake of prodrugs 1–8 was studied as described for L-thyroxine above by adding compounds at a concentration of 5–400 μM in prewarmed HBSS buffer (250 μL) on the cell layer and incubating at 37 °C for 30 min (uptake was linear with all compounds up to 30 min). Subsequently, the cells were washed three times with ice-cold HBSS and lysed with 500 μL of 0.1 M NaOH (60 min). The lysate was neutralized; the proteins were precipitated with acidic ACN (containing 4.8% formic acid), and the supernatants were analyzed by the (HPLC) methods described below. The concentrations of each prodrug normalized to protein concentration were calculated from the standard curve prepared by spiking known concentrations of compounds into ACN-precipitated cell lysate. […]

[4] = Enzymatic bioconversion in human liver S9 fraction; assay type: in vitro ADME; conditions: for Enzymatic stability, remaining percentage, human liver S9: after 5 h incubation, 100 μM prodrug
Procedure: as §1, §2

[5] = Enzymatic bioconversion in human plasma; assay type: in vitro ADME; conditions: after 5 h incubation, 37 °C, mean ± SD, n = 3
Procedure: as §1, §2

Compound	Enzymatic stability, remaining percentage, mouse liver S9 [1]	Enzymatic stability, remaining percentage, mouse brain cell homogenate [2]	Km [3]	Vmax, cellular uptake, U-87MG [3]	Vmax, cellular uptake, U-87MG ([3]; listed as PD2)	Enzymatic stability, remaining percentage, human liver S9 ([4]; 37 °C, mean ± SD, n = 3)	Enzymatic stability, remaining percentage, human plasma [5]	Bioconversion rate in mouse liver S9 relative to the corresponding T4 derivative [1]	half-life at 100 µM [1]	Bioconversion rate in human liver relative to the corresponding T4 derivative ([4]; DIT prodrug faster than T4 prodrug)	half-life at 100 µM ([4]; human, pH 7.4, liver S9 fraction, 37 °C, mean ± SD, n = 3, read-out: Enzymatic bioconversion half-life t1/2, human liver)	Transport capacity relative to prodrug 3 ([3]; at 200 μM concentration, U-87MG cells)	Affinity relative to corresponding DIT prodrug 3 ([3]; from Km values, U-87MG cells)	Vmax, cellular uptake, U-87MG ([3]; listed as PD5)	Bioconversion rate in human liver, slower than that of prodrug 6 [4]
CC(C(=O)Oc1c(I)cc(Oc2c(I)cc(C[C@H](N)C(=O)O)cc2I)cc1I)c1cccc(C(=O)c2ccccc2)c1 (mixture of isomers) [Prodrug 2, (2S)-2-Amino-3-(4-(4-((2-(3-benzoylphenyl)propanoyl)oxy)-3,5-diiodophenoxy)-3,5-diiodophenyl)propanoic acid]	87.59 ± 1.20%	96.01 ± 3.99%	118 ± 27 µM	13 nmol/min/mg	13.0 ± 1.3 nmol/min/mg	85.71 ± 4.27%	96.47 ± 3.53%	–	–	–	–	–	–	–	–
CC(C(=O)Oc1c(I)cc(C[C@H](N)C(=O)O)cc1I)c1ccc(-c2ccccc2)c(F)c1 (mixture of isomers) [Prodrug 7, (2S)-2-Amino-3-(4-((2-(2-fluoro-[1,1′-biphenyl]-4-yl)propanoyl)oxy)-3,5-diiodophenyl)propanoic acid]	25.19 ± 6.22%	92.68 ± 7.32%	381 ± 73 µM	19.8 ± 2.3 nmol/min/mg	–	30.54 ± 3.21%	90.52 ± 9.48%	around 3 times	2.69 ± 0.429 h	~2.5 times	2.91 ± 0.25 h	–	–	–	–
CC(C(=O)Oc1c(I)cc(Oc2c(I)cc(C[C@H](N)C(=O)O)cc2I)cc1I)c1ccc(-c2ccccc2)c(F)c1 (mixture of isomers) [Prodrug 8, (2S)-2-Amino-3-(4-(4-((2-(2-fluoro-[1,1′-biphenyl]-4-yl)propanoyl)oxy)-3,5-diiodophenoxy)-3,5-diiodophenyl)propanoic acid]	84.32 ± 0.99%	97.94 ± 2.06%	221 ± 48 µM	21.5 ± 2.4 nmol/min/mg	–	80.17 ± 2.23%	97.17 ± 2.83%	–	–	–	–	–	–	–	–
N[C@@H](Cc1cc(I)c(OC(=O)c2ccccc2O)c(I)c1)C(=O)O [Prodrug 3, (S)-2-Amino-3-(4-((2-hydroxybenzoyl)oxy)-3,5-diiodophenyl)propanoic acid]	99.06 ± 0.94%	95.26 ± 4.74%	539 ± 97 µM	9.9 ± 1.2 nmol/min/mg	–	96.84 ± 3.16%	68.94 ± 2.01%	–	–	–	–	–	–	–	–
N[C@@H](Cc1cc(I)c(Oc2cc(I)c(OC(=O)c3ccccc3O)c(I)c2)c(I)c1)C(=O)O [Prodrug 4, (S)-2-Amino-3-(4-(4-((2-hydroxybenzoyl)oxy)-3,5-diiodophenoxy)-3,5-diiodophenyl)propanoic acid]	69.18 ± 0.81%	91.38 ± 5.34%	106 ± 32 µM	9.0 ± 1.1 nmol/min/mg	–	84.00 ± 3.90%	97.17 ± 2.83%	–	–	–	–	ca. 3.5 times	5 times	–	–
COc1ccc2cc([C@H](C)C(=O)Oc3c(I)cc(C[C@H](N)C(=O)O)cc3I)ccc2c1 [Prodrug 5, (S)-2-Amino-3-(3,5-diiodo-4-(((S)-2-(6-methoxynaphthalen-2-yl)propanoyl)oxy)phenyl)propanoic acid]	38.26 ± 4.49%	92.98 ± 6.14%	138 ± 79 µM	9.0 nmol/min/mg	–	69.44 ± 2.10%	70.94 ± 29.06%	2 times	4.15 ± 0.761 h	–	–	–	–	9.0 ± 3.7 nmol/min/mg	around 10%
